Experimental data published in patent US9765074B2, “Inhibitors of the renal outer medullary potassium channel” (Merck Sharp & Dohme Corp., priority 2013, dated 2017).
pIC50: −log10 of the molar value.

biological target: T1, hROMK (hKir1.1) (Homo sapiens, UniProt P48048); assay: Thallium Flux Assay (ROMK channel functional thallium flux, FLIPR-Tetra); format: cell-based; details: HEK293 cells stably expressing hROMK (hKir1.1); 30 min compound incubation
T1 construct: expressed in transfected cells
T1 sequence (P48048 1-391): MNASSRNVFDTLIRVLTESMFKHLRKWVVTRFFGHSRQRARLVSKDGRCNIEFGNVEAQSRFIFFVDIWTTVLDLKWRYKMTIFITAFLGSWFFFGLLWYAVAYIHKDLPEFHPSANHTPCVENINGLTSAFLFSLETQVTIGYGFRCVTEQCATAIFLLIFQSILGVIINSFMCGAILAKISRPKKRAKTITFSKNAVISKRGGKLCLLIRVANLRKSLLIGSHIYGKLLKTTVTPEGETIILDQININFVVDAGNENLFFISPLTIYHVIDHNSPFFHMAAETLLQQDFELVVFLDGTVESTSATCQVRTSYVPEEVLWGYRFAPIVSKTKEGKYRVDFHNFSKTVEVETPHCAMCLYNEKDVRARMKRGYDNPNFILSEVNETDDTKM
In short: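 HEK293 cells stably expressing hKir1.1, loaded with FluxOR dye for 90 min, then preincubated with compound for 30 min at ambient temperature with 0.3 mM ouabain and probenecid. Stimulated with 3 mM thallium/0.3 mM potassium (final); fluorescence read ~10 min. Normalized to 3 μM reference ROMK inhibitor; IC50 from inhibition of flux.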

Structure (SMILES) | pIC50
CC1=C(N2CCC3(CCN(C[C@H](O)c4ccc(-n5cnnn5)nn4)CC3F)C2=O)COC1=O (single isomer, unassigned) [Example 183] | 7.10
CC1=C(N2CCC3(CCN(C[C@@H](O)c4ccc(-n5cnnn5)nn4)CC3F)C2=O)COC1=O (single isomer, unassigned) [Example 184] | 7.15
CC1=C(N2CCC3(CCN(C[C@H](O)c4nnc(-n5cnnn5)cc4C)CC3F)C2=O)COC1=O (single isomer, unassigned) [Example 185] | 7.30
CC1=C(N2CCC3(CCN(C[C@@H](O)c4nnc(-n5cnnn5)cc4C)CC3F)C2=O)COC1=O (single isomer, unassigned) [Example 186] | 7.15
CC1=C(N2CCC3(CCN(C[C@H](O)c4ccc(-n5cnnn5)nc4)CC3F)C2=O)COC1=O (single isomer, unassigned) [Example 192] | 8.00
CC1=C(N2CCC3(CCN(C[C@@H](O)c4ccc(-n5cnnn5)nc4)CC3F)C2=O)COC1=O (single isomer, unassigned) [Example 193] | 7.70
CC1=C(N2CCC3(CCN(C[C@H](O)c4ccc(-n5cnnn5)nc4)CC3F)C2=O)COC1=O (single isomer, unassigned) [Example 194] | 8.00
CC1=C(N2CCC3(CCN(C[C@@H](O)c4ccc(-n5cnnn5)nc4)CC3F)C2=O)COC1=O (single isomer, unassigned) [Example 195] | 8.00
CC1=C(N2CCC3(CCN(C[C@H](O)c4ccc(-n5cnnn5)nn4)CC3F)C2=O)COC1=O (single isomer, unassigned) [Example 196] | 7.40
CC1=C(N2CCC3(CCN(C[C@@H](O)c4ccc(-n5cnnn5)nn4)CC3F)C2=O)COC1=O (single isomer, unassigned) [Example 197] | 7.52
CC1=C(N2CCC3(CCN(C[C@H](O)c4nnc(-n5cnnn5)cc4C)CC3F)C2=O)COC1=O (single isomer, unassigned) [Example 198] | 8.00
CC1=C(N2CCC3(CCN(C[C@@H](O)c4nnc(-n5cnnn5)cc4C)CC3F)C2=O)COC1=O (single isomer, unassigned) [Example 199] | 7.70
CC1=C(N2CCC3(CCN(C[C@H](O)c4ccc(-n5cnnn5)nc4C)CC3O)C2=O)COC1=O (single isomer, unassigned) [Example 202] | 7.22
CC1=C(N2CCC3(CCN(C[C@H](O)c4ccc(-n5cnnn5)nc4C)CC3O)C2=O)COC1=O (single isomer, unassigned) [Example 203] | 6.82
O=C1C=C(N2C(=O)C3(CCN(C[C@H](O)c4cnc(-n5cnnn5)cn4)CC3)CC2CF)CO1 (single isomer, unassigned) [Example 204] | 6.52
O=C1C=C(N2C(=O)C3(CCN(C[C@H](O)c4cnc(-n5cnnn5)cn4)CC3)CC2CF)CO1 (single isomer, unassigned) [Example 205] | 7.52
CC1OC(=O)C=C1N1C(=O)C2(CCN(C[C@H](O)c3ccc(-n4cnnn4)nc3)CC2)C[C@@H]1C (single isomer, unassigned) [Example 228] | 7.70
CC1OC(=O)C=C1N1C(=O)C2(CCN(C[C@H](O)c3ccc(-n4cnnn4)nc3)CC2)C[C@@H]1C (single isomer, unassigned) [Example 229] | 6.55
CC1OC(=O)C=C1N1C(=O)C2(CCN(C[C@H](O)c3ccc(-n4cnnn4)nc3)CC2)C[C@H]1C (single isomer, unassigned) [Example 230] | 7.10
CC1OC(=O)C=C1N1C(=O)C2(CCN(C[C@H](O)c3ccc(-n4cnnn4)nc3)CC2)C[C@H]1C (single isomer, unassigned) [Example 231] | 5.82

Structure (SMILES) | pIC50
CC1CC2(CCN(CCc3cnc(-n4cnnn4)cn3)CC2)C(=O)N1C1=CC(=O)OC1 (single isomer, unassigned) [Example 242, 3-methyl-1-oxo-2-(5-oxo-2,5-dihydrofuran-3-yl)-8-{2-[5-(1H-tetrazol-1-yl)pyrazin-2-yl]ethyl}-2-aza-8-azoniaspiro[4.5]decane] | 7.40
CC1=C(N2CC(O)C3(CCN(CCc4ccc(-n5cnnn5)nn4)CC3)C2=O)COC1=O (single isomer, unassigned) [Example 243, 4-hydroxy-2-(4-methyl-5-oxo-2,5-dihydrofuran-3-yl)-1-oxo-8-{2-[6-(1H-tetrazol-1-yl)pyridazin-3-yl]ethyl}-2-aza-8-azoniaspiro[4.5]decane] | 6.68
CC1=C(N2CC(O)C3(CCN(CCc4ccc(-n5cnnn5)nc4)CC3)C2=O)COC1=O (single isomer, unassigned) [Example 244, 4-hydroxy-2-(4-methyl-5-oxo-2,5-dihydrofuran-3-yl)-1-oxo-8-{2-[6-(1H-tetrazol-1-yl)pyridin-3-yl]ethyl}-2-aza-8-azoniaspiro[4.5]decane] | 7.52
CC1=C(N2CC(O)C3(CCN(CCc4ccc(-n5cnnn5)nc4)CC3)C2=O)COC1=O (single isomer, unassigned) [Example 245, 4-hydroxy-2-(4-methyl-5-oxo-2,5-dihydrofuran-3-yl)-1-oxo-8-{2-[6-(1H-tetrazol-1-yl)pyridin-3-yl]ethyl}-2-aza-8-azoniaspiro[4.5]decane] | 7.70
COC1CN(CCc2ccc(-n3cnnn3)nn2)CCC12CCN(C1=C(C)C(=O)OC1)C2=O (single isomer, unassigned) [Example 257, 6-methoxy-2-(4-methyl-5-oxo-2,5-dihydrofuran-3-yl)-8-{2-[6-(1H-tetrazol-1-yl)pyridazin-3-yl]ethyl}-2,8-diazaspiro[4.5]decan-1-one] | 7.00
COC1CN(CCc2ccc(-n3cnnn3)nn2)CCC12CCN(C1=C(C)C(=O)OC1)C2=O (single isomer, unassigned) [Example 258, 6-methoxy-2-(4-methyl-5-oxo-2,5-dihydrofuran-3-yl)-8-{2-[6-(1H-tetrazol-1-yl)pyridazin-3-yl]ethyl}-2,8-diazaspiro[4.5]decan-1-one] | 6.92
COC1CN(CCc2nnc(-n3cnnn3)cc2C)CCC12CCN(C1=C(C)C(=O)OC1)C2=O (single isomer, unassigned) [Example 259, 6-methoxy-2-(4-methyl-5-oxo-2,5-dihydrofuran-3-yl)-8-{2-[4-methyl-6-(1H-tetrazol-1-yl)pyridazin-3-yl]ethyl}-2,8-diazaspiro[4.5]decan-1-one] | 7.00
COC1CN(CCc2nnc(-n3cnnn3)cc2C)CCC12CCN(C1=C(C)C(=O)OC1)C2=O (single isomer, unassigned) [Example 260, 6-methoxy-2-(4-methyl-5-oxo-2,5-dihydrofuran-3-yl)-8-{2-[4-methyl-6-(1H-tetrazol-1-yl)pyridazin-3-yl]ethyl}-2,8-diazaspiro[4.5]decan-1-one] | 6.92
CC1=C(N2CCC3(CCN(CCc4ccc(-n5cnnn5)nn4)CC3F)C2=O)COC1=O (single isomer, unassigned) [Example 265, 6-fluoro-2-(4-methyl-5-oxo-2,5-dihydrofuran-3-yl)-8-{2-[6-(1H-tetrazol-1-yl)pyridazin-3-yl]ethyl}-2,8-diazaspiro[4.5]decan-1-one] | 8.00
CC1=C(N2CCC3(CCN(CCc4ccc(-n5cnnn5)nn4)CC3F)C2=O)COC1=O (single isomer, unassigned) [Example 266, 6-fluoro-2-(4-methyl-5-oxo-2,5-dihydrofuran-3-yl)-8-{2-[6-(1H-tetrazol-1-yl)pyridazin-3-yl]ethyl}-2,8-diazaspiro[4.5]decan-1-one] | 8.00
CC1=C(N2CCC3(CCN(CCc4nnc(-n5cnnn5)cc4C)CC3F)C2=O)COC1=O (single isomer, unassigned) [Example 267, 6-fluoro-2-(4-methyl-5-oxo-2,5-dihydrofuran-3-yl)-8-{2-[4-methyl-6-(1H-tetrazol-1-yl)pyridazin-3-yl]ethyl}-2,8-diazaspiro[4.5]decan-1-one] | 8.00
CC1=C(N2CCC3(CCN(CCc4nnc(-n5cnnn5)cc4C)CC3F)C2=O)COC1=O (single isomer, unassigned) [Example 268, 6-fluoro-2-(4-methyl-5-oxo-2,5-dihydrofuran-3-yl)-8-{2-[4-methyl-6-(1H-tetrazol-1-yl)pyridazin-3-yl]ethyl}-2,8-diazaspiro[4.5]decan-1-one] | 8.00
CC1=C(N2C=CC3(CCN([C@@H](C)Cc4ccc(-n5cnnn5)nn4)CC3)C2=O)COC1=O (single isomer, unassigned) [Example 272] | 8.00
CC1=C(N2C=CC3(CCN([C@H](C)Cc4ccc(-n5cnnn5)nn4)CC3)C2=O)COC1=O (single isomer, unassigned) [Example 273] | 8.40
CC1=C(N2C=CC3(CCN([C@@H](C)Cc4nnc(-n5cnnn5)cc4C)CC3)C2=O)COC1=O (single isomer, unassigned) [Example 274] | 8.00
CC1=C(N2C=CC3(CCN([C@H](C)Cc4nnc(-n5cnnn5)cc4C)CC3)C2=O)COC1=O (single isomer, unassigned) [Example 275] | 8.40
CO[C@H](CN1CCC2(CC1)C[C@@H](C)N(C1=CC(=O)OC1)C2=O)c1cnc(-n2cnnn2)cn1 (single isomer, unassigned) [Example 286] | 7.22
CC1=C(N2CCC3(CCN(C[C@H](C)c4ccc(-n5cnnn5)nn4)CC3)C2=O)COC1=O (single isomer, unassigned) [Example 290] | 7.05
CC1=C(N2CCC3(CCN(C[C@@H](C)c4ccc(-n5cnnn5)nn4)CC3)C2=O)COC1=O (single isomer, unassigned) [Example 291] | 7.10
